The results in this text go back to the supplement of paper PMC10307832.

What all share (assay): relative viability (nuclei count vs DMSO), 5 days (fraction); higher = more cells survive
Compound in the assay “OSI-027 + Navitoclax”: COc1cccc2cc(-c3nc([C@H]4CC[C@H](C(=O)O)CC4)n4ncnc(N)c34)[nH]c12 [OSI-027] + CC1(C)CCC(c2ccc(Cl)cc2)=C(CN2CCN(c3ccc(C(=O)NS(=O)(=O)c4ccc(N[C@H](CCN5CCOCC5)CSc5ccccc5)c(S(=O)(=O)C(F)(F)F)c4)cc3)CC2)C1 [Navitoclax] (partner 0.5 µM)
In a few lines:
(§1)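 The day after seeding in 1536-well plates, lung cancer cell lines were treated by pin tool with a single drug, or with a fixed anchor-drug dose together with five library-drug doses (not always all listed) in √10 steps. After 5 days, a combined fix-and-stain solution (final 0.05% Triton X-100, 1% formaldehyde, 1 ug/ml Hoechst) was added. Nuclei counted on 4× images gave relative viability as treated counts over vehicle counts, reported as the median of duplicate plates.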

Compound in the assay “OSI-027 + Crizotinib”: COc1cccc2cc(-c3nc([C@H]4CC[C@H](C(=O)O)CC4)n4ncnc(N)c34)[nH]c12 [OSI-027] + C[C@@H](Oc1cc(-c2cnn(C3CCNCC3)c2)cnc1N)c1c(Cl)ccc(F)c1Cl [Crizotinib] (partner 1 µM)
In a few lines:
as §1

Compound in the assay “Vemurafenib + Dasatinib”: CCCS(=O)(=O)Nc1ccc(F)c(C(=O)c2c[nH]c3ncc(-c4ccc(Cl)cc4)cc23)c1F [Vemurafenib] + Cc1nc(Nc2ncc(C(=O)Nc3c(C)cccc3Cl)s2)cc(N2CCN(CCO)CC2)n1 [Dasatinib] (partner 0.075 µM)
Summed up:
as §1

Compound in the assay “Vemurafenib + AZD7762”: CCCS(=O)(=O)Nc1ccc(F)c(C(=O)c2c[nH]c3ncc(-c4ccc(Cl)cc4)cc23)c1F [Vemurafenib] + NC(=O)Nc1cc(-c2cccc(F)c2)sc1C(=O)N[C@H]1CCCNC1 [AZD7762] (partner 0.2 µM)
Summed up:
as §1

For NCI-H1975, the relative viability with OSI-027 + Navitoclax (first compound 0.01 µM) came out at 1.19; with OSI-027 + Navitoclax (first compound 0.03162 µM), 1.11; with OSI-027 + Navitoclax (first compound 0.1 µM), 1.16; with OSI-027 + Navitoclax (first compound 0.3162 µM), 1.02; in the assay with OSI-027 + Navitoclax (first compound 1 µM), 0.508; in the assay with OSI-027 + Crizotinib (first compound 0.01 µM), 1.1. Also, the relative viability turned out to be 0.88 in the assay with OSI-027 + Crizotinib (first compound 0.03162 µM); 0.99 in the assay with OSI-027 + Crizotinib (first compound 0.1 µM); 0.97 with OSI-027 + Crizotinib (first compound 0.3162 µM); 0.828 with OSI-027 + Crizotinib (first compound 1 µM); 0.359 in the assay with Vemurafenib + Dasatinib (first compound 0.03162 µM); 0.339 with Vemurafenib + Dasatinib (first compound 0.1 µM). In addition, the relative viability in the assay with Vemurafenib + Dasatinib (first compound 0.3162 µM) was found to be 0.206; with Vemurafenib + Dasatinib (first compound 1 µM), 0.378; with Vemurafenib + AZD7762 (first compound 0.03162 µM), 0.689; in the assay with Vemurafenib + AZD7762 (first compound 0.1 µM), 0.697; in the assay with Vemurafenib + AZD7762 (first compound 0.3162 µM), 0.396; with Vemurafenib + AZD7762 (first compound 1 µM) it was 0.654.

For NCI-H1755, the relative viability with OSI-027 + Navitoclax (first compound 0.01 µM) came to 1.01; in the assay with OSI-027 + Navitoclax (first compound 0.03162 µM), 0.968; with OSI-027 + Navitoclax (first compound 0.1 µM), 0.988; with OSI-027 + Navitoclax (first compound 0.3162 µM), 0.753; with OSI-027 + Navitoclax (first compound 1 µM), 0.279; with OSI-027 + Crizotinib (first compound 0.01 µM) it was 0.915. The relative viability with OSI-027 + Crizotinib (first compound 0.03162 µM) stood at 0.771; with OSI-027 + Crizotinib (first compound 0.1 µM), 0.872; with OSI-027 + Crizotinib (first compound 0.3162 µM), 0.748; with OSI-027 + Crizotinib (first compound 1 µM), 0.421; with Vemurafenib + Dasatinib (first compound 0.03162 µM), 0.396; with Vemurafenib + Dasatinib (first compound 0.1 µM), 0.406. The relative viability in the assay with Vemurafenib + Dasatinib (first compound 0.3162 µM) is 0.243; with Vemurafenib + Dasatinib (first compound 1 µM), 0.43; with Vemurafenib + AZD7762 (first compound 0.03162 µM) it was 0.483; with Vemurafenib + AZD7762 (first compound 0.1 µM) it was 0.459; with Vemurafenib + AZD7762 (first compound 0.3162 µM), 0.328; in the assay with Vemurafenib + AZD7762 (first compound 1 µM) it was 0.408.

Regarding CAL-12T, the relative viability in the assay with OSI-027 + Navitoclax (first compound 0.01 µM) stood at 1.36; with OSI-027 + Navitoclax (first compound 0.03162 µM), 1.18; with OSI-027 + Navitoclax (first compound 0.1 µM) it was 1.3; in the assay with OSI-027 + Navitoclax (first compound 0.3162 µM) it was 1.08; with OSI-027 + Navitoclax (first compound 1 µM) it was 0.5; in the assay with OSI-027 + Crizotinib (first compound 0.01 µM), 0.567. Besides, the relative viability with OSI-027 + Crizotinib (first compound 0.03162 µM) was 0.568; with OSI-027 + Crizotinib (first compound 0.1 µM), 0.62; with OSI-027 + Crizotinib (first compound 0.3162 µM), 0.718; in the assay with OSI-027 + Crizotinib (first compound 1 µM) it was 0.487; in the assay with Vemurafenib + Dasatinib (first compound 0.03162 µM) it was 0.42; with Vemurafenib + Dasatinib (first compound 0.1 µM), 0.266. The relative viability was found to be 0.454 with Vemurafenib + Dasatinib (first compound 0.3162 µM); 0.374 with Vemurafenib + Dasatinib (first compound 1 µM); 0.594 with Vemurafenib + AZD7762 (first compound 0.03162 µM); 0.617 in the assay with Vemurafenib + AZD7762 (first compound 0.1 µM); 0.535 with Vemurafenib + AZD7762 (first compound 0.3162 µM); 0.593 with Vemurafenib + AZD7762 (first compound 1 µM).

Consider NCI-H1734, for which the relative viability with OSI-027 + Navitoclax (first compound 0.01 µM) was 0.749; in the assay with OSI-027 + Navitoclax (first compound 0.03162 µM), 0.836; with OSI-027 + Navitoclax (first compound 0.1 µM), 0.785; in the assay with OSI-027 + Navitoclax (first compound 0.3162 µM), 0.746; in the assay with OSI-027 + Navitoclax (first compound 1 µM), 0.384; in the assay with OSI-027 + Crizotinib (first compound 0.01 µM), 0.618. The relative viability with OSI-027 + Crizotinib (first compound 0.03162 µM) turned out to be 0.509; with OSI-027 + Crizotinib (first compound 0.1 µM), 0.731; with OSI-027 + Crizotinib (first compound 0.3162 µM), 0.599; with OSI-027 + Crizotinib (first compound 1 µM), 0.394; with Vemurafenib + Dasatinib (first compound 0.03162 µM), 0.436; with Vemurafenib + Dasatinib (first compound 0.1 µM), 0.474. Besides, the relative viability with Vemurafenib + Dasatinib (first compound 0.3162 µM) is 0.357; in the assay with Vemurafenib + Dasatinib (first compound 1 µM) it was 0.432; with Vemurafenib + AZD7762 (first compound 0.03162 µM), 0.568; in the assay with Vemurafenib + AZD7762 (first compound 0.1 µM), 0.533; with Vemurafenib + AZD7762 (first compound 0.3162 µM) it was 0.371; with Vemurafenib + AZD7762 (first compound 1 µM), 0.559.

In the case of BEN, the relative viability was determined as 0.0799 in the assay with OSI-027 + Navitoclax (first compound 0.01 µM); 0.0753 with OSI-027 + Navitoclax (first compound 0.03162 µM); 0.0684 in the assay with OSI-027 + Navitoclax (first compound 0.1 µM); 0.0639 with OSI-027 + Navitoclax (first compound 0.3162 µM); 0.0589 in the assay with OSI-027 + Navitoclax (first compound 1 µM); 0.921 with OSI-027 + Crizotinib (first compound 0.01 µM). Further, the relative viability in the assay with OSI-027 + Crizotinib (first compound 0.03162 µM) was found to be 0.545; with OSI-027 + Crizotinib (first compound 0.1 µM), 0.612; with OSI-027 + Crizotinib (first compound 0.3162 µM) it was 0.34; in the assay with OSI-027 + Crizotinib (first compound 1 µM), 0.393; with Vemurafenib + Dasatinib (first compound 0.03162 µM), 0.274; with Vemurafenib + Dasatinib (first compound 0.1 µM), 0.257. The relative viability with Vemurafenib + Dasatinib (first compound 1 µM) is 0.309; with Vemurafenib + AZD7762 (first compound 0.03162 µM), 0.566; in the assay with Vemurafenib + AZD7762 (first compound 0.1 µM), 0.761; with Vemurafenib + AZD7762 (first compound 0.3162 µM), 0.392; with Vemurafenib + AZD7762 (first compound 1 µM) it was 0.638.

For the cell line NCI-H647, the relative viability with OSI-027 + Navitoclax (first compound 0.01 µM) was 1.18; with OSI-027 + Navitoclax (first compound 0.03162 µM), 1.11; in the assay with OSI-027 + Navitoclax (first compound 0.1 µM), 1.09; in the assay with OSI-027 + Navitoclax (first compound 0.3162 µM), 0.994; in the assay with OSI-027 + Navitoclax (first compound 1 µM), 0.643; in the assay with OSI-027 + Crizotinib (first compound 0.01 µM), 1.12. Besides, the relative viability with OSI-027 + Crizotinib (first compound 0.03162 µM) worked out at 1.2; in the assay with OSI-027 + Crizotinib (first compound 0.1 µM), 1.07; in the assay with OSI-027 + Crizotinib (first compound 0.3162 µM), 0.701; with OSI-027 + Crizotinib (first compound 1 µM), 0.456; in the assay with Vemurafenib + Dasatinib (first compound 0.03162 µM), 0.16; with Vemurafenib + Dasatinib (first compound 0.1 µM), 0.198. Besides, the relative viability amounted to 0.0963 in the assay with Vemurafenib + Dasatinib (first compound 0.3162 µM); 0.188 in the assay with Vemurafenib + Dasatinib (first compound 1 µM); 0.433 with Vemurafenib + AZD7762 (first compound 0.03162 µM); 0.541 with Vemurafenib + AZD7762 (first compound 0.1 µM); 0.26 in the assay with Vemurafenib + AZD7762 (first compound 0.3162 µM); 0.432 with Vemurafenib + AZD7762 (first compound 1 µM).

For NCI-H1792, the relative viability was found to be 0.417 in the assay with OSI-027 + Navitoclax (first compound 0.01 µM); 0.458 with OSI-027 + Navitoclax (first compound 0.03162 µM); 0.556 with OSI-027 + Navitoclax (first compound 0.1 µM); 0.572 in the assay with OSI-027 + Navitoclax (first compound 0.3162 µM); 0.43 with OSI-027 + Navitoclax (first compound 1 µM); 1.06 with OSI-027 + Crizotinib (first compound 0.01 µM). The relative viability came to 0.617 in the assay with OSI-027 + Crizotinib (first compound 0.03162 µM); 1.01 with OSI-027 + Crizotinib (first compound 0.1 µM); 0.902 in the assay with OSI-027 + Crizotinib (first compound 0.3162 µM); 0.199 in the assay with OSI-027 + Crizotinib (first compound 1 µM); 0.84 with Vemurafenib + Dasatinib (first compound 0.03162 µM); 0.733 with Vemurafenib + Dasatinib (first compound 0.1 µM). Besides, the relative viability came out at 0.815 with Vemurafenib + Dasatinib (first compound 1 µM), 0.548 in the assay with Vemurafenib + AZD7762 (first compound 0.03162 µM), 0.44 with Vemurafenib + AZD7762 (first compound 0.1 µM) and 0.593 with Vemurafenib + AZD7762 (first compound 1 µM).

Turning to NCI-H2347, the relative viability in the assay with OSI-027 + Navitoclax (first compound 0.01 µM) was found to be 0.916; with OSI-027 + Navitoclax (first compound 0.03162 µM), 0.764; with OSI-027 + Navitoclax (first compound 0.1 µM), 0.609; in the assay with OSI-027 + Navitoclax (first compound 0.3162 µM), 0.626; with OSI-027 + Navitoclax (first compound 1 µM), 0.333; with OSI-027 + Crizotinib (first compound 0.01 µM), 0.668. Further, the relative viability in the assay with OSI-027 + Crizotinib (first compound 0.03162 µM) was determined as 0.609; with OSI-027 + Crizotinib (first compound 0.1 µM), 0.673; in the assay with OSI-027 + Crizotinib (first compound 0.3162 µM), 0.388; with OSI-027 + Crizotinib (first compound 1 µM), 0.405; with Vemurafenib + Dasatinib (first compound 0.03162 µM), 0.346; in the assay with Vemurafenib + Dasatinib (first compound 0.1 µM), 0.311. Besides, the relative viability in the assay with Vemurafenib + Dasatinib (first compound 0.3162 µM) was found to be 0.692; with Vemurafenib + Dasatinib (first compound 1 µM), 0.346; with Vemurafenib + AZD7762 (first compound 0.03162 µM), 0.744; in the assay with Vemurafenib + AZD7762 (first compound 0.1 µM), 0.744; in the assay with Vemurafenib + AZD7762 (first compound 0.3162 µM), 0.664; in the assay with Vemurafenib + AZD7762 (first compound 1 µM), 0.884.
